Measured values reported in patent publication US8431554B2, “Compound showing anti-inflammatory activity and antiviral activity, pharmaceutical compositions comprising the same, a process for obtaining the same and use of the same in the treatment of epidemic keratoconjunctivites and herpetic stromal keratis” (priority 2007, dated 2013).

Columns and labels:
[1] = system: strain KOS of HSV-1 (herpetic stromal keratitis); test: Murine model of herpetic stromal keratitis (HK) induced by HSV-1; assay type: in vivo, mice; settings: for incidence of HK upon completion of the period of disease / severity of lesions versus non-treated infected mice / incidence of HK (mice with signs of keratitis): treated days 1, 2, 3 p.i.; for incidence of HK upon completion of the period of disease / incidence of HK (mice with signs of keratitis): FIG. 1A; for severity of lesions versus non-treated infected mice: FIG. 1B
Protocol: To determine if the treatment with compound I, after viral inoculation, affected the signs of HK, male mice of 6-8 weeks were anesthetized with ketamine/xylazine intraperitoneally and infected with the strain KOS of HSV-1 in the right corneas, previously scrapped with a needle. One group of animals was treated with buffered saline solution (PBS) (control of disease), while the rest were treated topically with a concentration of 40 μM of compound I three times a day. Also, groups of animals to control the antiviral activity of aciclovir (ACV) and anti-inflammatory activity of dexamethasone (DEX) were included, both drugs were commercially available.
It was determined the incidence of the disease as well as the degree of severity of the lesions and evolution of HK was determined under a magnifying glass during 15 days. The diagnosis of the disease is based on the density of inflammatory infiltrates, lengthening of vessels with corneal invasion (neovascularization), and the presence of surface ulcers. Therefore, mice presenting swollen eyelids (blepharitis), neovascularization in more than 10% of the corneal surface, and corneal opacity with or without signs of necrosis, were considered sick of HK.
The signs of ocular signs are gradually developed from the days 6-7 post-infection (p.i.) and the percentage of animals with HK and severity of the signs of the disease on days 3, 8, and 15 p.i were recorded (FIG. 1 y 2).
To evaluate the antiviral activity of compound I, the compound was applied to a group of animals on days 1, 2 y 3 p.i., the days when multiplication of HSV-1 in the cornea occurs. Also, other groups of mice were treated with ACV—as a positive control of antiviral activity—and with DEX.
To evaluate the anti-inflammatory activity of compound I, the compound was applied on days 6, 7 and 8 p.i., the time when HK manifests.

[2] = system: strain KOS of HSV-1 (herpetic stromal keratitis); test: as above; assay type: in vivo, mice; settings: treated days 6, 7, 8 p.i.; read on day 10 p.i.; FIG. 2A
[3] = system: strain KOS of HSV-1; test: Anti-HSV-1 activity, virus yield in infected IOBA-NHC cells titrated in Vero cells; assay type: cell-based; settings: for EC50: Human alphaherpesvirus 1, Vero, HSV-1 KOS, m.i. 0.2, IOBA-NHC cells, 24 h, read-out: CE50 (Effective concentration 50); for IS, Selectivity index (CC50/CE50): anti-HSV-1, IOBA-NHC cells
Protocol: To evaluate the antiviral activity of the compounds I and II, monolayers of cells IOBA-NHC grown in microplates of 24 wells were infected with the strain KOS of HSV-1 at a multiplicity of infection (m.i.) of 0.2, and treated with different concentrations of the compounds. Infected cells not treated were used as control of the infection. After incubating at 37° C. during 24 h, the free and cell associated virus was harvested and titrated in Vero cells by plating in semisolid medium. It was observed an inhibition of dose-dependent viral replication in the cells treated with the compounds I and II (Table 1).

[4] = Cytotoxicity, colorimetric MTT assay in IOBA-NHC cells; assay type: cell-based; settings: human, IOBA-NHC human conjunctival cells, confluent monolayers, 24 hours at 37° C., read-out: CC50 (Cytotoxyc concentration 50)
Protocol: The activity anti-HSV-1 of the compounds I and II was evaluated in human conjunctive cells (IOBA-NHC). First, it was determined cytotoxicity of the same for cells IOBA-NHC using the colorimetric assay with MTT, based on the cleavage of the tetrazolium salt MTT (3-(4,5-dimethylthiazol-2-yl)-2,5-diphenyl tetrazolium […]) by the mitochondrial enzyme succinate dehydrogenase, to obtain a blue product, formazan (Denizot F, Lang R. Rapid colorimetric assay for cell growth and survival. Journal of Immunological Methods 1986; 89:271-77). The compounds dissolved in ethanol are added to confluent monolayers of cells IOBA-NHC grown in microplates of 96 wells, in concentrations of up to 600 μM, according to the compound. The ethanol concentration was lower than 1%. After 24 hours of incubation at 37° C., the absorbency of each well was read at 570 nm, with a reference wave length of 630 nm. It was determined the 50% cytotoxyc concentration (CC50) as the concentration of compound that reduces absorbency to 50% in relation with the control not treated (Table 1).

[5] = system: mice; test: Toxicity assay in vivo; settings: 40 μM, three times a day, three consecutive days
Protocol: A toxicity assay in vivo was performed.

[6] = system: adenovirus (ADV-5); test: Antiviral activity against adenovirus in infected IOBA-NHC cultures; assay type: cell-based; settings: ADV-5, IOBA-NHC; for viral activity (used for selectivity index): multiplicity of infection of 1; for inhibition of adenovirus replication, in words: multiplicity of infection of 1, different concentrations
[7] = Cytotoxicity used for the adenovirus selectivity index; assay type: cell-based; settings: human; IOBA-NHC
Protocol: The antiviral selectivity index of Compound I for adenovirus is of 31.6. Said index was determined as a quotient between its viral activity (=63.2) and its cytotoxicity (=2).
The antiviral selectivity index of Compound II for adenovirus is of […] Said index was determined as a quotient between its viral activity (=62.6) and its cytotoxicity (=4).

[8] = system: alpha-TNF production in macrophages J774; test: Inhibition of alpha-TNF production in LPS-treated J774 macrophages; assay type: cell-based; settings: different concentrations
From the text: Also, compound I has anti-inflammatory activity.
Also, said compound II has anti-inflammatory activity.

[9] = treated days 6, 7, 8 p.i., FIG. 2A

## Nc1nc2c(ncn2COCCO)c(=O)[nH]1 [ACV, aciclovir, reference compound]
[1]
  incidence of HK upon completion of the period of disease: 30%
  severity of lesions versus non-treated infected mice: significant differences
[1]; read on day 8 p.i.
  incidence of HK (mice with signs of keratitis): 10%
[1]; [9]
  HK signs, in words: had no effect on the improvement of disease signs

## CC[C@@H](C(C)C)[C@H](O)[C@@H](O)[C@@H](C)[C@H]1CC[C@H]2[C@@H]3CCC4=CC(=O)CC[C@]4(C)[C@H]3CC[C@]12C [Compound I, (22S,23S)-22,23-dihydroxystigmast-4-en-3-one]
[2]
  mice with signs of the disease (HK): 40%
[3]
  EC50: 5.4 µM
  IS, Selectivity index (CC50/CE50): 13.2
[1]
  incidence of HK upon completion of the period of disease: 40%
  severity of lesions versus non-treated infected mice: significant differences
[1]; read on day 8 p.i.
  incidence of HK (mice with signs of keratitis): 30%
[1]; [9]
  HK signs, in words: reduced significantly
[1]; treated days 6, 7, 8 p.i., FIG. 2B
  severity of the signs of keratitis versus infection control: lower
[1]; treated days 6, 7, 8 p.i., read on day 8 p.i., FIG. 2A
  mice with signs of the disease (HK): 30%
[4]
  CC50 at 24 h: 71.2 µM
[5]
  toxic effects in vivo: absence of toxic effects
[6]
  antiviral selectivity index for adenovirus: 31.6
  viral activity (used for selectivity index): 63.2
  inhibition of adenovirus replication, in words: inhibits virus replication according to the concentration of compound used
[7]
  cytotoxicity: 2
[8]
  inhibition of alpha-TNF production, in words: inhibits production of alpha-TNF

## CC[C@@H](C(C)C)[C@H](O)[C@@H](O)[C@@H](C)[C@H]1CC[C@H]2[C@@H]3CCC4=CC(=O)C=C[C@]4(C)[C@H]3CC[C@]12C [Compound II, (22S,23S)-22,23-dihydroxystigmasta-1,4-dien-3-one]
[3]
  EC50: 17.9 µM
  IS, Selectivity index (CC50/CE50): 3.9
[4]
  CC50 at 24 h: 70.8 µM
[6]
  antiviral selectivity index for adenovirus: 15.67
  viral activity (used for selectivity index): 62.6
  inhibition of adenovirus replication, in words: inhibits virus replication according to the concentration of compound used
[7]
  cytotoxicity: 4
[8]
  inhibition of alpha-TNF production, in words: inhibits production of alpha-TNF
